This is an account of results in ChEMBL document CHEMBL4219207, “Reversible, orally available ADP receptor (P2Y12) antagonists Part I: Hit to lead process” (Bioorg Med Chem Lett, 2018).

Series [1] has as its target T1, P2Y purinoceptor 12 (Homo sapiens, UniProt Q9H244). The series can be described thus: Displacement of [3H]2MeSADP from P2Y12 receptor in human platelets after 60 mins by TopCount scintillation counting method. Background: Loss of bound radioactivity is the signal in a displacement assay; it reports binding, not function.
The nature of series [2]: Plasma concentration in Sprague-Dawley rat at 2 mg/kg, po via gavage after 1 hr using sample obtained from jugular vein. In kind it is ADME, organism-based.
The nature of series [3]: Plasma concentration in Sprague-Dawley rat at 2 mg/kg, po via gavage after 3 hrs using sample obtained from jugular vein. It counts as ADME, organism-based.
The nature of series [4]: Plasma concentration in Sprague-Dawley rat at 2 mg/kg, po via gavage after 1 hr using sample obtained from portal vein. In kind it is ADME, organism-based.
Series [5] can be described thus: Plasma concentration in Sprague-Dawley rat at 2 mg/kg, po via gavage after 3 hrs using sample obtained from portal vein. In kind it is ADME, organism-based.
The nature of series [6]: Cmax in Sprague-Dawley rat at 2 mg/kg, po via gavage. In kind it is ADME, organism-based. On the set-up: dose 2 mg/kg, route oral. To be noted: in vivo.
Series [7] in a line: Oral bioavailability in Sprague-Dawley rat at 2 mg/kg via gavage. It counts as ADME, organism-based. To be noted: in vivo.
The target in series [8] is T1, P2Y purinoceptor 12. The experiment in a line: Competitive/reversible antagonist activity at P2Y12 receptor in platelets (unknown origin) assessed as inhibition of ADP-induced platelet aggregation. It counts as functional.
The nature of series [9]: Metabolic stability in human liver microsomes assessed as parent compound remaining at 3000 nM. It counts as ADME, microsome. To be noted: read-out: Stability. A general note: Microsomes from liver hold many membrane-bound enzymes, among them those of drug oxidation.
A short description of series [10]: Metabolic stability in rat liver microsomes assessed as parent compound remaining at 3000 nM. It counts as ADME, microsome. To be noted: read-out: Stability.
The nature of series [11]: Metabolic stability in dog liver microsomes assessed as parent compound remaining at 3000 nM. It counts as ADME, Canis lupus familiaris, microsome. To be noted: read-out: Stability.
The nature of series [12]: Half life in Sprague-Dawley rat at 2 mg/kg, po via gavage. To be noted: in vivo. In kind it is ADME, organism-based.
Series [13] in a line: Permeability in human Caco2 cells. In kind it is ADME, cell-based. To be noted: Caco-2, read-out: permeability.

As usually defined, the pIC50 is the negative decadic logarithm of the IC50, by convention in mol/L. Low values mean a high IC50, high ones a low IC50. A word on the Cmax: it is the highest concentration seen after dosing. What is called bioavailability is dose-corrected exposure relative to a reference, in per cent. A higher bioavailability goes with much systemic uptake. Usually Kb stands for the equilibrium dissociation constant of an antagonist, usually derived from a functional assay. As a reminder, the half-life is the time in which the quantity being followed falls by half. Low values mean rapid decline, high ones slow decline.

pIC50: −log10 of the molar value.

T1 sequence (Q9H244 whole entry): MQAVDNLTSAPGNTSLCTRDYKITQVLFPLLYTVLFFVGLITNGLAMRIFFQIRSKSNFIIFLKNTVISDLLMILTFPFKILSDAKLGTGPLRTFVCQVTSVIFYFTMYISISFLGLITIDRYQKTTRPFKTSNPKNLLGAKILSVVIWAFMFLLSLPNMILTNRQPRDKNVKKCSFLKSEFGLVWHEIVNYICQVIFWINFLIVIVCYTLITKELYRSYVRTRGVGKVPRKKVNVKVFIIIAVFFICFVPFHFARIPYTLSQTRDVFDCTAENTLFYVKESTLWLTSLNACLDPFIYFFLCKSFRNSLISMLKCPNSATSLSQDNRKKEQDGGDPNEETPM

Consider `CCOC(=O)N1CCN(C(=O)CNC(=O)c2cc(OC)c3ccccc3n2)[C@H](C)C1`, for which, at P2Y purinoceptor 12 [1], the pIC50 is 5.35. Consider `CCOC(=O)N1CCN(C(=O)CN(C)C(=O)c2cc(OC)c3ccccc3n2)CC1`, for which, on P2Y purinoceptor 12 [1], the pIC50 was 4.68. The compound `CCOC(=O)N1CCN(C(=O)[C@@H](NC(=O)c2cc(OC)c3ccccc3n2)C(C)C)CC1` had a pIC50 at P2Y purinoceptor 12 [1] of 5.82. The compound `CCCCCC(=O)N1CCN(C(=O)CNC(=O)c2cc(OC)c3ccccc3n2)CC1` showed a pIC50 on P2Y purinoceptor 12 [1] of 5.92. Take `CCOC(=O)N1CCN(C(=O)[C@H](CC(=O)O)NC(=O)c2cc(OC)c3ccccc3n2)CC1`: the concentration at 1 h in series [2] was determined as 270 nM; in series [4] it was 410 nM. The pIC50 at P2Y purinoceptor 12 [1] is 6.82. In addition, the concentration at 3 h in series [3] was 200 nM; in [5] it was 380 nM. With `CCOC(=O)N1CCN(C(=O)[C@H](COCC(=O)O)NC(=O)c2cc(OC)c3ccccc3n2)CC1`, the pIC50 at P2Y purinoceptor 12 [1] was 6.70. `CCOC(=O)N1CCN(C(=O)[C@H](CC(=O)NCC(=O)O)NC(=O)c2cc(OC)c3ccccc3n2)CC1`: the pIC50 on P2Y purinoceptor 12 [1] is 5.96. On the same count and under the same terms, the value for `CCOC(=O)N1CCN(C(=O)[C@H](Cc2c[nH]c3ccccc23)NC(=O)c2cc(OC)c3ccccc3n2)CC1` was 5.10. In turn, `CCOC(=O)N1CCN(C(=O)[C@@H](CCC(=O)O)NC(=O)c2cc(OC)c3ccccc3n2)CC1` had a pIC50 at P2Y purinoceptor 12 [1] of 4.66. This pIC50 is 0.44 log units lower than that of the compound before. As to `CCOC(=O)N1CCN(C(=O)CNC(=O)c2cc(OC)c3ccccc3n2)CC1`, the pIC50 on P2Y purinoceptor 12 [1] is 6.16. For the same compound, the Cmax in series [6] worked out at 1200 nM. The bioavailability in series [7] is 42%.

Regarding `CCOC(=O)N1CCN(C(=O)CNC(=O)c2cc(O)c3ccccc3n2)CC1`, the pIC50 at P2Y purinoceptor 12 [1] is under 5.70.

With `CCOC(=O)N1CCN(C(=O)[C@H](CCC(=O)O)NC(=O)c2cc(OC)c3ccccc3n2)CC1`, the concentration at 1 h in series [2] turned out to be 120 nM; in series [4], 340 nM. Also, the pIC50 at P2Y purinoceptor 12 [1] was 7.07. This compound gave a Cmax in [6] of 120 nM. The Kb on P2Y purinoceptor 12 [8] was determined as 94 nM. Moreover, the remaining at 3 µM in series [9], in series [10] and in series [11] was over 90% in each case. The results for the concentration at 3 h in series [3] and in series [5] were 100 nM and 340 nM, respectively. Further, the half-life in series [12] was 1.2 h. In addition, the Papp in series [13] amounted to 0.166 ×10⁻⁶ cm/s. The compound `CCCOc1cc(C(=O)NCC(=O)N2CCN(C(=O)OCC)CC2)nc2ccccc12` gave a negative logarithm of the IC50 (pIC50) at P2Y purinoceptor 12 [1] of 6.28. Turning to `CCOC(=O)N1CCN(C(=O)[C@H](CCCCN)NC(=O)c2cc(OC)c3ccccc3n2)CC1`, on P2Y purinoceptor 12 [1], the pIC50 is 4.59.

On P2Y purinoceptor 12 [1], `CCc1ccc(C(=O)N2CCN(C(=O)CNC(=O)c3cc(OC)c4ccccc4n3)CC2)cc1` gave a negative-log IC50 (pIC50) of 5.74. Against the preceding compound, the pIC50 is 1.15 log units higher. In the case of `CCOC(=O)N1CCN(C(=O)CNC(=O)c2cc(OC)c3ccccc3n2)C[C@@H]1C`, at P2Y purinoceptor 12 [1], the pIC50 is 5.77. Regarding `CCOC(=O)N1CCN(C(=O)[C@H](Cc2ccccc2)NC(=O)c2cc(OC)c3ccccc3n2)CC1`, the pIC50 at P2Y purinoceptor 12 [1] is 5.07. For the compound `CCOC(=O)N1CCN(C(=O)[C@H](Cc2cnc[nH]2)NC(=O)c2cc(OC)c3ccccc3n2)CC1`, the pIC50 on P2Y purinoceptor 12 [1] was 5.82. For the compound `CCOC(=O)N1CCN(C(=O)CNC(=O)c2cc(OCC)c3ccccc3n2)CC1`, the pIC50 on P2Y purinoceptor 12 [1] is 6.08. Against the preceding compound, the pIC50 is 0.26 log units higher. As to `CCOC(=O)N1CCN(C(=O)[C@H](C)NC(=O)c2cc(OC)c3ccccc3n2)CC1`, at P2Y purinoceptor 12 [1], the pIC50 is 5.72. At P2Y purinoceptor 12 [1], `CCOC(=O)N1CCN(C(=O)CNC(=O)c2cc(OC)c3ccccc3n2)C[C@H]1C` had a pIC50 of 5.37. With `CCOC(=O)N1CCN(C(=O)CNC(=O)c2ccc3ccccc3c2)CC1`, the pIC50 on P2Y purinoceptor 12 [1] is 5.74. The highest level in [6] (Cmax) was 1500 nM.

Compound `CCOC(=O)N1CCN(C(=O)[C@H](CCC(N)=O)NC(=O)c2cc(OC)c3ccccc3n2)CC1` gave a pIC50 at P2Y purinoceptor 12 [1] of 5.60. On P2Y purinoceptor 12 [1], `CCOC(=O)N1CCN(C(=O)CNC(=O)C=C2c3ccccc3-c3ccccc32)CC1` had a pIC50 of 6.07. In series [6], the Cmax was 2700 nM. Take `CCOC(=O)N1CCN(C(=O)[C@@H](C)NC(=O)c2cc(OC)c3ccccc3n2)CC1`: the pIC50 at P2Y purinoceptor 12 [1] was 4.85. On the same count and under the same terms, the value for `CCOC(=O)N1CCN(C(=O)[C@H](CC(N)=O)NC(=O)c2cc(OC)c3ccccc3n2)CC1` was 5.68; that for `COC(=O)N1CCN(C(=O)CNC(=O)c2cc(OC)c3ccccc3n2)CC1` was under 5.52. As for `CCOC(=O)N1CCN(C(=O)[C@H](CCCC(=O)O)NC(=O)c2cc(OC)c3ccccc3n2)CC1`, the pIC50 on P2Y purinoceptor 12 [1] was 6.57. Same read-out and setting: the same measure for `COc1cc(C(=O)NCC(=O)N2CCN(c3cccc(C)c3)CC2)nc2ccccc12`: 6.05.

As for `CCOC(=O)N1CCN(C(=O)CNC(=O)c2cc(OC)c3ccccc3n2)[C@@H](C)C1`, the negative logarithm of the IC50 (pIC50) on P2Y purinoceptor 12 [1] is 5.96. With `CCOC(=O)N1CCN(C(=O)[C@@H](CC(=O)O)NC(=O)c2cc(OC)c3ccccc3n2)CC1`, at P2Y purinoceptor 12 [1], the pIC50 was 4.74. Compared with the last compound, the pIC50 is 1.22 log units lower.

In turn, `COc1cc(C(=O)NCC(=O)N2CCN(C(=O)NC(C)(C)C)CC2)nc2ccccc12` had a pIC50 at P2Y purinoceptor 12 [1] of 6.04. Still for that read-out and setting: the same measure for `CCOC(=O)N1CCN(C(=O)[C@H](CO)NC(=O)c2cc(OC)c3ccccc3n2)CC1`: 5.96; for `CCOC(=O)N1CCN(C(=O)CNC(=O)c2cc(OCc3ccccc3)c3ccccc3n2)CC1`: under 5.52. `CCOC(=O)N1CCN(C(=O)[C@@H](CSCC(=O)O)NC(=O)c2cc(OC)c3ccccc3n2)CC1` had a pIC50 on P2Y purinoceptor 12 [1] of 6.72.
